{"source": "patent US20260242829A1", "about": "“Use of Inhibitors to Increase Efficiency of CRISPR/Cas Insertions” (ASTRAZENECA AB, priority 2023, published 2026)", "system": "HEK293T cells", "assay": "Effect of MMEJ and NHEJ inhibitors on CRISPR-Cas-induced double-strand break repair pathways and editing efficiency (amplicon sequencing, RIMA2)", "assay_type": "cell-based", "conditions": "AZD7648 (1 µM) alone and in combination with Compound 1 at indicated concentrations, CRISPR/Cas9-mediated gene targeting, FIG. 4", "procedure": "The effect of inhibitors of the MMEJ and NHEJ pathways on CRISPR-Cas-induced DNA double stranded break repair pathways was examined using the process shown schematically in FIG. 2A. Briefly, HEK293T cells were seeded into a 96-well plate 20 hours before transfection with plasmids encoding SpCas9 and a guide RNA (sgRNA) targeting CD34 in the presence and absence of single-stranded oligonucleotide donor (ssDNA). Two hours prior to transfection, the cells were submitted to inhibitor treatments, including the following conditions: a) 1 μM DNAPK inhibitor AZD7648 b) 1 μM DNAPK inhibitor AZD7648 in combination with compound 1, which was titrated in a 1:2 dilution series, ranging between 10 μM and 0.01 μM and corresponding DMSO control. Seventy hours post-transfection, cell confluence and eGFP-based transfection efficiencies were determined with the Incucyte SX5. Genomic DNA was extracted and editing outcome was analysed through deep-targeted amplicon sequencing and RIMA2 analysis (FIG. 2A) to determine knock-in frequencies as well as mutagenic DNA repair events, such as NHEJ and MMEJ outcomes (FIG. 2B).", "data": [{"smiles": "CN1CCN(CCOc2ccc(-c3nc4c(OC5(C)CC5)ncnc4n3Cc3ccccc3)c(Cl)c2)CC1", "note": "[Compound 1, 9-Benzyl-8-(2-chloro-4-(2-(4-methylpiperazin-1-yl)ethoxy)phenyl)-6-(1-methylcyclopropoxy)-9H-purine]", "values": [{"measurement": "DNA double strand break repair pathway used after CRISPR/Cas gene targeting", "value": "results in DNA double strand break repair by the more precise HDR pathway, and minimizes the contribution from the more error-prone MMEJ and NHEJ pathways"}]}, {"smiles": "Cc1cc2ncnn2cc1Nc1ncc2c(n1)n(C1CCOCC1)c(=O)n2C", "note": "[AZD7648]", "values": [{"measurement": "DNA double strand break repair pathway used after CRISPR/Cas gene targeting", "value": "results in DNA double strand break repair by the more precise HDR pathway, and minimizes the contribution from the more error-prone MMEJ and NHEJ pathways"}]}]}
